Results: patent publication US8951982B2, “Methods and compositions for the treatment of eye disorders with increased intraocular pressure” (Sylentis S.A.U., priority 2004, dated 2015)
d = 2'-deoxy (DNA)

Columns and labels:
PTGS1 = assay: siRNA transfection of cells, real time PCR of target gene expression; type: cell-based; conditions: 100 nM siRNA, mean ± SD
Protocol: (§1) Cells (either NPE, OMDC, or HEK293 cells) were incubated with various siRNA molecules and assayed for expression of the native mRNA corresponding to the siRNA molecule. One day prior to transfection, 2−4×10^5 cells were seeded into each well of a 6 well plate in 3 ml of growth medium (DMEM, 10% serum, antibiotics and glutamine) and incubated under normal growth conditions (37° C. and 5% CO2). Lipofectamine 2000 Reagent (Invitrogen Corporation, Carlsbad, Calif.) was used to transfect the cells with the siRNA molecules. The protocol supplied by the manufacturer was followed. Briefly, siRNA molecules were added to cells that were 30%-50% confluent to a final concentration of 100 nM. Prior to addition to the cells, the siRNA molecule was diluted in 250 μl DMEM and incubated at room temperature for 5 minutes. The siRNA was then mixed with 6 μl of Lipofectamine 2000 Reagent that also had been diluted in 250 μl DMEM and the mixture was incubated at room temperature for 20 minutes. The siRNA/Lipofectamine mixture was added to the cells drop-wise with 2 ml of fresh growth medium low in antibiotics. After swirling the plates to ensure uniform distribution of the transfection complexes, the cells were incubated under normal growth conditions for 24 hours. After incubation with either of the transfection complexes, the medium was removed and replaced with 3 ml of fresh complete growth medium. mRNA was collected from cells at 24, 48 and 72 hours post-transfection.
(§2) After transfection and incubation with a siRNA molecule, total RNA fractions were extracted from cells using protocols well known in the art. The effect of siRNAs on target gene expression was analyzed by real time PCR and semi-quantitative PCR according to standard protocols. Approximately 250 ng of total RNA was used for reverse transcription followed by PCR amplification with specific primers for the target gene in a reaction mixture containing SYBR Green I Dye (Applied Biosystems, Foster City, Calif.). Basic PCR conditions comprised an initial step of […], followed by 40 cycles of 5 s at 95° C., 10 s at 62° C. and 15 s at 72° C. Quantification of beta-actin mRNA was used as a control for data normalization.
(§3) The values represent the mean of the percentage of siRNA interference of each gene expression once normalized with the control cells and their standard deviations.

CA2 = assay: as above; type: cell-based; conditions: 100 nM siRNA, mean ± SD, normalized to beta-actin
Protocol: as §1, §2, §3

[1] = tested on: Normotensive New Zealand White rabbits; assay: In vivo rabbit model of IOP (contact tonometer); conditions: figure legends (FIGS. 5-8), 256 μg dose of siRNA per administration
Protocol: Normotensive New Zealand White rabbits (males, 2-3 kg) were used in the in vivo assays. The animals were kept in individual cages with free access to food and water. Animals were submitted to artificial 12 hours light/darkness cycles to avoid uncontrolled circadian oscillations of IOP and all experiments were performed at the same time of day to control for any fluctuations in IOP due to circadian oscillations. Animal handling and treatment were carried out in accordance with the European Communities Council Directive (86/609/EEC) and the statement of the Association for Research in Vision and Ophthalmology on the Use of Animals in Ophthalmic and Vision Research. Each animal was used for only one experiment.
IOP measurements were done using a contact tonometer (TonoPen XL, Mentor, Norwell, Mass.) due to past success of measuring intraocular pressures within the range of 3 to 30 mm Hg in rabbits (Abrams et al., 1996, Invest Ophthalmol Vis Sci. 37:940-4). Measurements were performed by delicately applying the tonometer's sensor to the corneal surface of the animal. All measurements fell within the 3 to 30 mm Hg interval with the mean baseline value of intraocular pressure being 17.0±0.39 mm Hg for untreated animals (n=100). In order to avoid distress to the animal, rabbits were topically anesthetized (10 μl of oxibuprocaine/tetracaine, 0.4%/1%, in a saline solution (1/4 v:v)) prior to IOP measurement.
Commercially available drugs were typically administered to the animals by instilling a small volume (typically 40 μl) on the corneal surface. Contralateral eyes were treated with the vehicle alone and were used as controls in each experiment.
siRNA molecules or commercially available drugs were typically administered to the animals as follows. Doses of siRNA in saline solution (0.9% w/v) to a final volume of 40 μl were applied to the corneal surface of one eye each day during four consecutive days. The opposite eye was taken as a control and 40 μl of sterile saline (0.9% w/v) was instilled on it at the same time points. Commercially available drugs were typically administered to the animals by instilling a small volume (typically 40 μl) on the corneal surface. Contralateral eyes were treated with the vehicle alone and were used as controls in each experiment. The IOP was measured before each application and at 2 h, 4 h and 6 h following the instillation for 10 days.
The data are summarized in Table 2 where values represent the mean of the normalized maximum percentage of IOP reduction after siRNA treatment and their standard deviations. The decrease in IOP was statistically significant for all the treated targets.

## SEQ ID NO: 353: siRNA targeting PTGS1 (prostaglandin endoperoxide synthase 1) (CCAUCUCUACCACUGGCAC; 3' dTdT, sugars by position and backbone not given here; listed as Homo sapiens)
PTGS1; 24 h post-transfection
  % of gene transcript level in control cells: 42.25 ± 13.76%
PTGS1; 48 h post-transfection
  % of gene transcript level in control cells: 42.68 ± 17.00%

## SEQ ID NO: 66: siRNA targeting CA2 (CUUCACUUGGUUCACUGGA; 3' dTdT, sugars by position and backbone not given here; listed as Homo sapiens)
CA2; 24 h post-transfection
  % of gene transcript level in control cells: 35.30 ± 9.73%
CA2; 48 h post-transfection
  % of gene transcript level in control cells: 51.14 ± 16.49%

## SEQ ID NO: 369: siRNA targeting PTGS1 (CAUUGUCAAGACGGCCACA; 3' dTdT, sugars by position and backbone not given here; listed as Homo sapiens)
PTGS1; 24 h post-transfection
  % of gene transcript level in control cells: 34.98 ± 14.33%
PTGS1; 48 h post-transfection
  % of gene transcript level in control cells: 26.30 ± 10.91%

## SEQ ID NO: 73: siRNA targeting human carbonic anhydrase II (CA2), 2 thymidine 3' overhang (GGUUGGCAGCGCUAAACCG; 3' dTdT, sugars by position and backbone not given here; listed as Homo sapiens)
CA2; 24 h post-transfection
  % of gene transcript level in control cells: 76.25 ± 12.60%
CA2; 48 h post-transfection
  % of gene transcript level in control cells: 84.57 ± 14.70%
[1]
  decrease of IOP over a saline control: 25%

## SEQ ID NO: 54: siRNA targeting CA2 (CUUCCCUGAGGAUCCUCAA; 3' dTdT, sugars by position and backbone not given here; listed as Homo sapiens)
CA2; 24 h post-transfection
  % of gene transcript level in control cells: 37.97 ± 9.78%
CA2; 48 h post-transfection
  % of gene transcript level in control cells: 61.45 ± 9.62%
